# Laboratory results: patent publication US9487557B2, “Peptides for management of lactation” (MILEUTIS LTD., priority 2012, dated 2016)
# Ends that are not written are not given here.
# What was measured:
# Type in all cases: in vivo
# [1] = test system: mammary gland of lactating dairy cows; assay: Field study of involution induction: change in somatic cell counts in milk samples after a single intramammary infusion at dry-off; settings: change vs Day 0, calculated from log transformation of raw data, single intramammary infusion, peptides 4 mg in 10 ml, casein hydrolyzate 20 ml
# Procedure: (§1) A filed study was performed to assess the potential of a single intramammary dose of the synthetic peptides of the invention administered at dry (i.e. at the day in which milking is ceased), to induce rapid involution.
# (§2) Total of 107 dairy cows were enrolled to the study, of which 45 received treatment and 62 served as a control. All cows were dairy cows at their first or further lactation that stand the inclusion/exclusion criteria. The study was a controlled blinded case-control study.
# (§3) Case subjects received one dose by intramammary infusion of a particular peptide. Controls were lactating cows that received the following products by intramammary administration:
# (§4) Five groups of 9 cows (total of 36 udder quarters per group) were scheduled as case groups. Each group was treated with one out of the five (5) phosphopeptides described in Example 1 hereinabove (P241210-01-01; 03; 05; 07 and 09). The peptides were administered once via intramammary infusion of 10 ml containing 4 mg peptide.
# (§5) Set one: Five groups of 9 cows (total of 36 udder quarters per group) were scheduled as a first control set. Each group was treated with one out of the five (5) dephosphorylated peptides described in Example 1 hereinabove (P241210-01-02; 04; 06; 08 and 10). The peptides were administered once via intramammary infusion of 10 ml containing 4 mg peptide.
# (§6) (i) Eleven cows (total of 44 udder quarters) treated with casein hydrolyzate (20 ml) administered once via intramammary infusion of 20 ml (around 1.8 mg/ml casein phosphopeptide (CPP), total=36 mg CPP for 20 ml)
# (§7) All treatments (peptides, casein hydrolyzate and saline) were administered at the time point scheduled for cessation of milking (dry off). The day of administration was set as Day 0.
# (§8) Sets of aseptic milk samples were collected in two separate vials once a day in the milking facility after the morning milking, on Day 0 and in post-treatment days 1, 2 and 3. The sampling time points were set to up to three days after treatment administration to ensure sufficient milk secretion for the measurements of all involution parameters. The volume of the samples was between 30 to 50 ml. The pH of the milk sample was measured in situ using a Cyberscan pH11 meter (Eutech Instruments, Singapore). The apparatus was calibrated each day by immersing the receptor in standard buffers of pH 7.0 and pH 4.01. Measurements were taken twice for each sample obtained from a mammary gland, with an interval of 30 seconds between measurements. pH measurement was repeated on-site by using the same sample vial. Before double-pH measurement, the milk sample vials were gently shaken three (3) times. After the pH measurement, the milk samples vials were kept in cool storage with a preservative product (Broad Spectrum Microtabs II—Bronopol and Metamycin—D&F Control System Inc., Two Technology Way, Norwood Mass. 02062 USA).
# Somatic cell count was also determined in milk samples by Fossomatic 360 (Foss Electric, Hillerod, Denmark), and based on guidelines from the USA National Mastitis Council. Laboratory Handbook on Bovine Mastitis. 1999. Ed. National Mastitis Council, Verona, Wis. 53593 USA.
# (§9) Endpoint Measures: pH, lactose and somatic cell counts (SCC) values from milk secretions at day 0 and during three (3) days post-treatment were taken. Results are described as the difference between the measures at each of the 3 days post treatment and the measured level at Day 0.
# Additional parameter that may be used to establish the progression of the involution process is the presence of somatic cells within the milk. The increase in cell count within the milk is the result of high degree of apoptotic epithelial cell death associated with involution. […] The results presented in the table were calculated from log transformation of the raw data that were highly variable.
# [2] = test system: mammary gland of lactating dairy cows; assay: Field study of involution induction: change of pH in milk samples after a single intramammary infusion at dry-off; settings: difference in pH vs Day 0, single intramammary infusion, peptides 4 mg in 10 ml, casein hydrolyzate 20 ml
# Procedure: as §1, §2, §3, §4, §5, §6, §7, §8, §9
# Table 2 below summarizes the effect of the peptides examined and of casein hydrolyzate (CNH) on the pH of milk samples taken 1, 2 and 3 days after the one-dose treatment with each peptide or CNH. The results are presented as the difference in pH value between each of the days post treatment and Day 0 (before treatment).
# [3] = test system: mammary gland of lactating dairy cows; assay: Field study of involution induction: change in lactose content of milk samples after a single intramammary infusion at dry-off; settings: difference in lactose concentration vs Day 0, single intramammary infusion, peptides 4 mg in 10 ml, casein hydrolyzate 20 ml
# Procedure: as §1, §2, §3, §4, §5, §6, §7, §8
# Lactose values in the milk samples were determined at the Central Laboratory of Milk Quality, Caesaria Industrial Park, Israel, according to ISO 2266211DF 198:2007.
# Data from six quarters were excluded from the analysis of lactose changes. Data from one of those quarters were omitted due to a missing initial value. For the other five quarters, lactose concentrations taken during the three follow-up days could not be analyzed due to a rapid mammary involution process, resulting in non-sufficient milk sample for lactose analysis.
# as §9
# One of the most significant outcomes of involution in terms of milk composition is a reduction in lactose content. Thus, lactose concentration was also measured in the milk samples taken before and after peptide or CNH administration as described for the pH measurements hereinabove. […]
substance,measurement,setting,value
KSSSEE-NH2,"Changes in Somatic Cell Counts in milk samples, Day 1, Mean",[1]; Day 1 post treatment,−0.186
same,"Changes in Somatic Cell Counts in milk samples, Day 2, Mean",[1]; Day 2 post treatment,0.843
same,"Changes in Somatic Cell Counts in milk samples, Day 3, Mean",[1]; Day 3 post treatment,1.492
same,"Changes of pH in milk samples, Day 1, Mean",[2]; Day 1 post treatment,0.047
same,"Changes of pH in milk samples, Day 2, Mean",[2]; Day 2 post treatment,−0.028
same,"Changes of pH in milk samples, Day 3, Mean",[2]; Day 3 post treatment,0.115
same,"Changes in Lactose content in milk samples, Day 1, Mean",[3]; Day 1 post treatment,−0.368
same,"Changes in Lactose content in milk samples, Day 2, Mean",[3]; Day 2 post treatment,−1.531
same,"Changes in Lactose content in milk samples, Day 3, Mean",[3]; Day 3 post treatment,−1.675
